Measured values taken from patent publication US11717508B2, “Compounds, compositions, and methods for inhibiting bacterial growth” (priority 2016, dated 2023).

System: DosRST regulon
Assay type: cell-based
Conditions: 40 μM, 6 days, >2-fold, p<0.05

C[C@@H]1CC(C)(C)C[C@]2(C1)NC(=O)NC2=O (racemic) [HC102A, 7,7,9-trimethyl-1,3-diazaspiro[4.5]decane-2,4-dione]
genes downregulated by compound that are also downregulated in the CDC1551(ΔdosR) mutant: 48 genes
